# Experiments:
# [1] = system: Plasmodium falciparum, K1 strain, IEF stage; experiment: In vitro activity against P. falciparum K1; format: cell-based; settings: for IC50: Plasmodium falciparum, K1 dual drug resistant strain, IEF stage, average of two independent assays, read-out: IC50 P. falc. K1; for SI Pf: Selectivity index for P. falciparum = IC50 L6/IC50 Pf
# Protocol: (§1) The in vitro activities against the protozoan parasites T.b. rhodesiense, T. cruzi, L. donovani, and P. falciparum and cytotoxicity assessment against L6 cells were determined as reported elsewhere.
# [2] = system: Trypanosoma brucei rhodesiense, STIB 900 strain, trypomastigotes stage; experiment: In vitro activity against T. b. rhodesiense; format: cell-based; settings: Trypanosoma brucei; STIB 900, trypomastigotes; average of two independent assays; read-out: IC50 T. b. rhod.
# Protocol: as §1
# [3] = system: GFP-transfected P. berghei strain ANKA; experiment: In vivo anti-malarial efficacy in P. berghei infected mice; set-up: species or system NMRI mice
# Protocol: Furan carboxylic acid analogue 16 was selected for preliminary proof-of-principle in vivo evaluation in Plasmodium berghei infected mice. […] Switching to an oral dosing experiment (100 mg/kg once per day for 4 days) yielded a 47% reduction of parasitaemia. Although not considered significant, these levels of activity for both ip and po dosing clearly identifies heterocyclic dioxothiazinoquinone carboxylic acids to be a novel anti-malarial drug scaffold warranting further structure-activity relationship studies.
# In vivo anti-malarial activity was assessed as previously described. Groups of three female NMRI mice (20–22 g) were intravenously infected with 2 × 10^7 parasitized erythrocytes on day 0 with GFP-transfected P. berghei strain ANKA [24]. Compounds were formulated in 100% DMSO, diluted 10-fold in distilled water and administered intraperitoneally in a volume of 10 ml kg^−1 on four consecutive days (4, 24, 48 and 72 h post infection). Control experiments used DMSO-H2O vehicle alone. Parasitemia was determined on day 4 post infection (24 h after last treatment) by FACS analysis. Activity was calculated as the difference between the mean per cent parasitaemia for the control (n = 5 mice) and treated groups expressed as a per cent relative to the control group. The survival of the animals was usually monitored up to 30 days: a compound was considered curative if the animal survived to day 30 after infection with no detectable parasites. In vivo efficacy studies in mice were conducted according to the rules and regulations for the protection of animal rights (“Tierschutzverordnung”) of the Swiss “Bundesamt für Veterinärwesen”. They were approved by the veterinary office of Canton Basel-Stadt, Switzerland.
# [4] = in vivo, 150 mg/kg
# [5] = system: Leishmania donovani, MHOM-ET-67/L82 strain, amastigote/axenic stage; experiment: In vitro activity against L. donovani; format: cell-based; settings: Leishmania donovani, MHOM-ET-67/L82, axenic amastigotes; average of two independent assays; read-out: IC50 L. don.
# Protocol: as §1
# [6] = system: L6 rat skeletal myoblast cell line; experiment: Cytotoxicity against L6 cells; format: cell-based; settings: Rattus norvegicus, Myoblast, cytotoxicity, L6 rat skeletal myoblasts; average of two independent assays; read-out: IC50 L6
# Protocol: as §1
# [7] = system: Trypanosoma cruzi, Tulahuen C4 strain, amastigotes stage; experiment: In vitro activity against T. cruzi; format: cell-based; settings: Trypanosoma cruzi, TULAHUEN, Tulahuen C4, amastigotes; average of two independent assays; read-out: IC50 T. cruzi
# Protocol: as §1
Structure (SMILES),IC50 [1] [µM],SI Pf [1],IC50 [2] [µM],reduction in parasitaemia ([3]; ip 50 (mg/kg)/day for four days) [%],"mean survival time ([3]; ip 50 (mg/kg)/day for four days, untreated control 4–6 days) [days]",reduction of parasitaemia ([3]; oral 100 mg/kg once per day for 4 days) [%],ip acute toxicity [4],IC50 [5] [µM],IC50 [6] [µM],IC50 [7] [µM],melting point
"O=C(O)c1cc2c(o1)C(=O)C1=C(C2=O)S(=O)(=O)CCN1 [Compound 16, 5,9-Dioxo-3,4,5,9-tetrahydro-2H-benzofuro[5,6-b][1,4]thiazine-7-carboxylic Acid 1,1-Dioxide]",0.12,2400,7.5,85.7,9.6,47,no toxicity,> 300,290,> 300,–
"CCCCCCCCNC(=O)c1ccc2c(n1)C(=O)C1=C(C2=O)S(=O)(=O)C=CN1 [Compound 8c, N-n-Octyl-5,10-dioxo-5,10-dihydro-4H-[1,4]thiazino[2,3-g]quinoline-7-carboxamide 1,1-Dioxide]",0.98,6,2.4,–,–,–,–,53,6.5,42,280 °C (dec.)
"O=C(NCc1ccccc1)c1ccc2c(n1)C(=O)C1=C(C2=O)S(=O)(=O)C=CN1 [Compound 8d, N-Benzyl-5,10-dioxo-5,10-dihydro-4H-[1,4]thiazino[2,3-g]quinoline-7-carboxamide 1,1-Dioxide]",4.7,7,4.2,–,–,–,–,> 250,34,160,280 °C (dec.)
"O=C(O)c1cc2c(o1)C(=O)C1=C(C2=O)S(=O)(=O)C=CN1 [Compound 17, 5,9-Dioxo-5,9-dihydro-4H-benzofuro[5,6-b][1,4]thiazine-7-carboxylic Acid 1,1-Dioxide]",0.34,560,2.7,–,–,–,–,120,190,> 300,280 °C (dec.)
"O=C(NCc1ccccc1)c1ccc2c(n1)C(=O)C1=C(C2=O)S(=O)(=O)CCN1 [Compound 7d, N-Benzyl-5,10-dioxo-3,4,5,10-tetrahydro-2H-[1,4]thiazino[2,3-g]quinoline-7-carboxamide 1,1-Dioxide]",1.1,14,1.9,–,–,–,–,21,15,43,200 °C (dec.)
"C#CCNC(=O)c1ccc2c(n1)C(=O)C1=C(C2=O)S(=O)(=O)CCN1 [Compound 7h, N-(Prop-2-yn-1-yl)-5,10-dioxo-3,4,5,10-tetrahydro-2H-[1,4]thiazino[2,3-g]quinoline-7-carboxamide 1,1-Dioxide]",2.4,17,> 150,–,–,–,–,170,41,53,280 °C (dec.)
"COCCNC(=O)c1ccc2c(n1)C(=O)C1=C(C2=O)S(=O)(=O)C=CN1 [Compound 8i, N-(2-Methoxyethyl)-5,10-dioxo-5,10-dihydro-4H-[1,4]thiazino[2,3-g] quinoline-7-carboxamide 1,1-Dioxide]",1.5,67,13,–,–,–,–,150,99,140,200 °C (dec.)
"C#CCNC(=O)c1ccc2c(n1)C(=O)C1=C(C2=O)S(=O)(=O)C=CN1 [Compound 8h, N-(Prop-2-yn-1-yl)-5,10-dioxo-5,10-dihydro-4H-[1,4]thiazino[2,3-g]quinoline-7-carboxamide 1,1-Dioxide]",1.7,29,10,–,–,–,–,230,50,150,230 °C (dec.)
"CCCCNC(=O)c1ccc2c(n1)C(=O)C1=C(C2=O)S(=O)(=O)C=CN1 [Compound 8a, N-n-Butyl-5,10-dioxo-5,10-dihydro-4H-[1,4]thiazino[2,3-g]quinoline-7-carboxamide 1,1-Dioxide]",0.7,33,3.7,–,–,–,–,> 280,23,63,200 °C (dec.)
"CC(C)=CCC/C(C)=C/CNC(=O)c1ccc2c(n1)C(=O)C1=C(C2=O)S(=O)(=O)C=CN1 [Compound 8g, (E)-N-(3,7-Dimethylocta-2,6-dien-1-yl)-5,10-dioxo-5,10-dihydro-4H-[1,4]thiazino[2,3-g] quinoline-7-carboxamide 1,1-Dioxide]",1.1,4,2.5,–,–,–,–,150,4.9,42,280 °C (dec.)
"O=C(NCCc1ccccc1)c1ccc2c(n1)C(=O)C1=C(C2=O)S(=O)(=O)CCN1 [Compound 7e, N-Phenethyl-5,10-dioxo-3,4,5,10-tetrahydro-2H-[1,4]thiazino[2,3-g]quinoline-7-carboxamide 1,1-Dioxide]",1.5,72,2.4,–,–,–,–,160,110,140,240 °C (dec.)
